The subject of experiment [1] is SK-BR-3. Kind of experiment: Inhibition of oncogene product p185 erbB-2 from human breast cancer cells(SK-BR-3 cells) at 50 mg/kg dose. It is filed as functional.
For experiment [2], the system named is Mus musculus. The experiment can be described thus: In vivo inhibition of phospho-p185erbB-2 expression in FRE/erbB-2 tumors in nu/nu mice at 100 mg/kg dose.
The subject of experiment [3] is SK-BR-3. Kind of experiment: Inhibition of oncogene product p185 erbB-2 from human breast cancer cells(SK-BR-3 cells).
The subject of experiment [4] is Mus musculus. Kind of experiment: In vivo inhibition of phospho-p185erbB-2 expression in FRE/erbB-2 tumors in nu/nu mice at 200 mg/kg dose.
The test system of experiment [5] is Mus musculus. Kind of experiment: In vivo inhibition of phospho-p185erbB-2 expression in FRE/erbB-2 tumors at 50 mg/kg dose in mice.
Experiment [6] relates to Mus musculus. The experiment can be described thus: In vivo inhibition of phospho-p185erbB-2 expression in human SK-BR-3 tumors at 100 mg/kg dose in mice. In kind it is functional.
Experiment [7] concerns Mus musculus. Kind of experiment: In vivo inhibition of phospho-p185erbB-2 expression in FRE/erbB-2 tumors at 200 mg/kg dose in mice.
Experiment [8] has as its system Mus musculus. Kind of experiment: In vivo inhibition of phospho-p185erbB-2 expression in FRE/erbB-2 tumors at 400 mg/kg dose in mice.
The subject of experiment [9] is SK-BR-3. Kind of experiment: […] inhibition of phospho-p185erbB-2 expression in human breast cancer cells(SK-BR-3 cells) at 200 mg/kg dose. In kind it is functional.
For experiment [10], the system named is Mus musculus. The experiment can be described thus: In vivo inhibition of phospho-p185erbB-2 expression in human SK-BR-3 tumors at 50 mg/kg ip dose in mice. It is filed as functional. The conditions noted are these: SK-BR-3, ip, route intraperitoneal.
Experiment [11] concerns Mus musculus. The experiment can be described thus: In vivo inhibition of phospho-p185erbB-2 expression in FRE/erbB-2 tumors at 200 mg/kg dose ip in mice. The note with it: FRE/erbB-2, ip.
The species named for experiment [12] is Mus musculus. The note with it: 400 mg/kg.
Description: In vivo inhibition of phospho-p185erbB-2 expression in human SK-BR-3 tumors at 400 mg/kg dose in mice (lethal)
Experiment [13] relates to Mus musculus. The experiment can be described thus: In vivo inhibition of phospho-p185erbB-2 expression in human SK-BR-3 tumors at 100 mg/kg ip dose in mice. In kind it is functional. The note with it: SK-BR-3, ip, route intraperitoneal.
Experiment [14] relates to SK-BR-3. Kind of experiment: In vitro inhibition of phospho-p185erbB-2 expression in human breast cancer cells(SK-BR-3 cells) at 50 mg/kg dose. In kind it is functional. On the set-up: dose 50 mg/kg.
Experiment [15] has as its system Mus musculus. The experiment can be described thus: In vivo inhibition of phospho-p185erbB-2 expression in FRE/erbB-2 tumors at 400 mg/kg ip dose in mice. The conditions noted are these: FRE/erbB-2, ip.

By IC50 is commonly meant the midpoint of a concentration-inhibition curve. `CO[C@H]1/C=C\C=C(/C)C(=O)NC2=CC3=NC(N(C)C)=NC3=C(C[C@@H](C)C[C@H](OC)[C@H](O)[C@@H](C)/C=C(\C)[C@@H]1OC(N)=O)C2=O`: inhibition in experiment [1] was half-maximal at 50 nM (IC50).

As for `CCN(CC)C1=NC2=C3C[C@@H](C)C[C@H](OC)[C@H](O)[C@@H](C)/C=C(\C)[C@H](OC(N)=O)[C@@H](OC)/C=C\C=C(/C)C(=O)NC(=CC2=N1)C3=O`, in experiment [1], the IC50 turned out to be 210 nM.

As usually defined, the inhibition in vivo is the percentage by which the read-out fell short of the control. The low end stands for a weak effect, the high end for a strong effect. In the case of `CO[C@H]1/C=C\C=C(/C)C(=O)NC2=CC(=O)C(NCCF)=C(C[C@@H](C)C[C@H](OC)[C@H](O)[C@@H](C)/C=C(\C)[C@@H]1OC(N)=O)C2=O`, the inhibition in vivo at 100 mg/kg in [2] came out at 50%. In experiment [3], the IC50 came to 12 nM. In [4], this compound registered an inhibition in vivo at 200 mg/kg of 68%.

Take `CO[C@H]1/C=C\C=C(/C)C(=O)NC2=CC(=O)C(NC[C@H](C)O)=C(C[C@@H](C)C[C@H](OC)[C@H](O)[C@@H](C)/C=C(\C)[C@@H]1OC(N)=O)C2=O`: at 100 mg/kg the inhibition in vivo in experiment [2] was 65%. 99 nM corresponded to half-maximal inhibition in experiment [3] (IC50). This compound yielded an inhibition in vivo at 200 mg/kg in experiment [4] of 70%.

As for `CO[C@H]1C[C@H](C)CC2=C3N=C(N(C)C)N=C3C=C(NC(=O)/C(C)=C/CC[C@H](OC)[C@@H](OC(N)=O)/C(C)=C/[C@H](C)[C@H]1O)C2=O`, it took 50 nM to reach half-maximal inhibition in [1] (IC50).

Turning to `C=CCNC1=C2C[C@@H](C)C[C@H](OC)[C@H](O)[C@@H](C)/C=C(\C)[C@H](OC(N)=O)[C@@H](OC)/C=C\C=C(/C)C(=O)NC(=CC1=O)C2=O` [TANESPIMYCIN], the inhibition in vivo at 100 mg/kg in experiment [2] was determined as 55%; in experiment [6] it was 60%. 31 nM corresponded to half-maximal inhibition in experiment [3] (IC50). The same compound gave an inhibition in vivo at 50 mg/kg in experiment [5] of 27%. Besides, the values for the inhibition in vivo at 200 mg/kg in [4] and in experiment [7] were 68% and 80%, respectively. In experiment [8], this compound came in with an inhibition in vivo at 400 mg/kg of 72%.

With `CO[C@H]1C[C@H](C)CC2=C(N3CCC3)C(=O)C=C(NC(=O)/C(C)=C/CC[C@H](OC)[C@@H](OC(N)=O)/C(C)=C/[C@H](C)[C@H]1O)C2=O`, in experiment [2], the inhibition in vivo at 100 mg/kg is 38%. Also, the midpoint of inhibition in experiment [3], the IC50, lay at 14 nM. The compound further displayed an inhibition in vivo at 200 mg/kg in experiment [4] of 27%.

As for `CO[C@H]1C[C@H](C)CC2=C(N)C(=O)C=C(NC(=O)/C(C)=C/CC[C@H](OC)[C@@H](OC(N)=O)/C(C)=C/[C@H](C)[C@H]1O)C2=O`, in experiment [2], at 100 mg/kg the inhibition in vivo was 45%. For the same compound, the IC50 in [3] came out at 40 nM. Moreover, in experiment [4], the inhibition in vivo at 200 mg/kg turned out to be 44%.

As for `CO[C@H]1C[C@H](C)CC2=C(N3CC(O)C3)C(=O)C=C(NC(=O)/C(C)=C/CC[C@H](OC)[C@@H](OC(N)=O)/C(C)=C/[C@H](C)[C@H]1O)C2=O`, the inhibition in vivo at 100 mg/kg in experiment [2] came to 29%. The compound further came in with an IC50 in experiment [3] of 50 nM. In [4], this compound had an inhibition in vivo at 200 mg/kg of 44%.

In the case of `CO[C@H]1/C=C\C=C(/C)C(=O)NC2=CC(=O)C(NCCC#N)=C(C[C@@H](C)C[C@H](OC)[C@H](O)[C@@H](C)/C=C(\C)[C@@H]1OC(N)=O)C2=O`, the IC50 in experiment [1] is 17 nM. The compound further showed an inhibition in vivo at 200 mg/kg in experiment [9] of 61%.

The compound `CO[C@H]1C[C@H](C)CC2=C(NCCC#N)C(=O)C=C(NC(=O)/C(C)=C/CC[C@H](OC)[C@@H](OC(N)=O)/C(C)=C/[C@H](C)[C@H]1O)C2=O` showed an IC50 in [1] of 30 nM.

`COC1=C2C[C@@H](C)C[C@H](OC)[C@H](O)[C@@H](C)/C=C(\C)[C@H](OC(N)=O)[C@@H](OC)/C=C\C=C(/C)C(=O)NC(=CC1=O)C2=O` [GELDANAMYCIN] yielded an inhibition in vivo at 50 mg/kg in experiment [10] of 30%. Also, testing at 200 mg/kg in experiment [11] gave an inhibition in vivo of 25%. Further, in experiment [12], the inhibition entry is “Lethal”. For the same compound, inhibition in [3] was half-maximal at 70 nM (IC50). Moreover, in [13], at 100 mg/kg the inhibition in vivo was 6%.

For the compound `CO[C@H]1/C=C\C=C(/C)C(=O)NC2=CC3=NC(N(C)Cc4ccccc4)=NC3=C(C[C@@H](C)C[C@H](OC)[C@H](O)[C@@H](C)/C=C(\C)[C@@H]1OC(N)=O)C2=O`, the IC50 in experiment [1] is 300 nM.

Compound `CO[C@H]1/C=C\C=C(/C)C(=O)NC2=CC(=O)C=C(C[C@@H](C)C[C@H](OC)[C@H](O)[C@@H](C)/C=C(\C)[C@@H]1OC(N)=O)C2=O` displayed an IC50 in [14] of 300 nM. In experiment [10], this compound came in with an inhibition in vivo at 50 mg/kg of 29%. The compound also came in with an inhibition in vivo at 100 mg/kg in experiment [13] of 34%. In [15], this compound showed an inhibition in vivo at 400 mg/kg of 57%.
